Assay results reported in PMC4656030 (Journal of pharmacokinetics and pharmacodynamics, 2015).

What was measured:
[1] = tested on: porcine diamine oxidase; conditions: read-out: reported KM of putrescine; cited from earlier work
[2] = molecular target: T1, porcine kidney diamine oxidase (Sus scrofa, UniProt Q9TRC7); assay: Diamine oxidase spectrophotometric assay with putrescine as substrate; type: biochemical
T1 sequence (Q9TRC7 25-755): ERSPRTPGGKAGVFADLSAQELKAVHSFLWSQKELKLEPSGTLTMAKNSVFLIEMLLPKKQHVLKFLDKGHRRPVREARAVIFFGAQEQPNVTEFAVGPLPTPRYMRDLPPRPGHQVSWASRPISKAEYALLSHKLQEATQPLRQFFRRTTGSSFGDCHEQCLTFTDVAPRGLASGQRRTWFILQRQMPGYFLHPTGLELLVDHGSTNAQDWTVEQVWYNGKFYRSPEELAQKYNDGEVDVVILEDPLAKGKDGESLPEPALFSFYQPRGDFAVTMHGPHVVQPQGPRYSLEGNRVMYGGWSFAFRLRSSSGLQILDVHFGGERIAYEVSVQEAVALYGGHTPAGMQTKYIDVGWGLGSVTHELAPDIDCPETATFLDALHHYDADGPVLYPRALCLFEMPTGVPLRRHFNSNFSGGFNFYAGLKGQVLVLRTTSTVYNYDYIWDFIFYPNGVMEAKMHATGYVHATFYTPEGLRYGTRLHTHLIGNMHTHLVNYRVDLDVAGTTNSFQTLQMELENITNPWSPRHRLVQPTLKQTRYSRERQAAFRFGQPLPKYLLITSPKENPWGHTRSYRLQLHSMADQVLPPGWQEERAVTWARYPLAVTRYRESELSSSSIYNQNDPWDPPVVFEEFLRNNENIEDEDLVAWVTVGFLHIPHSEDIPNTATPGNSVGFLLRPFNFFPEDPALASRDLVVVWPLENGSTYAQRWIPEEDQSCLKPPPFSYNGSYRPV

[3] = after a therapeutic dose; cited from earlier work
[4] = molecular target: diamine oxidase; conditions: read-out: Ki for diamine oxidase; cited from earlier work
[5] = substrate: NCCCCN; assay: purified protein, by the assay type; conditions: other: porcine DAO; pH 7.0; 37.0 °C

Molecule: NCCCCN [putrescine]
- Km [1]: 350 µM

Molecule: CN(C)C(=N)N=C(N)N [metformin, Metformin]
- Ki [2]: 8.6 ± 3.1 mM
- type of DAO inhibition ([2]; porcine DAO): mixed-type inhibition
- predicted concentration in the intestinal lumen [3]: 10 to 20 mM

Molecule: [H]/N=C(/N)N/C(=N/[H])NCCc1ccccc1 [phenformin]
- Ki [4]: 4 mM

Molecule: N=C(N)NN [aminoguanidine]
- % inhibition of porcine DAO ([2]; inhibitor 100 μM, putrescine 100 μM as substrate): greater than 80%

B1: porcine kidney diamine oxidase (Sus scrofa) (protein)
chain: ERSPRTPGGKAGVFADLSAQELKAVHSFLWSQKELKLEPSGTLTMAKNSVFLIEMLLPKKQHVLKFLDKGHRRPVREARAVIFFGAQEQPNVTEFAVGPLPTPRYMRDLPPRPGHQVSWASRPISKAEYALLSHKLQEATQPLRQFFRRTTGSSFGDCHEQCLTFTDVAPRGLASGQRRTWFILQRQMPGYFLHPTGLELLVDHGSTNAQDWTVEQVWYNGKFYRSPEELAQKYNDGEVDVVILEDPLAKGKDGESLPEPALFSFYQPRGDFAVTMHGPHVVQPQGPRYSLEGNRVMYGGWSFAFRLRSSSGLQILDVHFGGERIAYEVSVQEAVALYGGHTPAGMQTKYIDVGWGLGSVTHELAPDIDCPETATFLDALHHYDADGPVLYPRALCLFEMPTGVPLRRHFNSNFSGGFNFYAGLKGQVLVLRTTSTVYNYDYIWDFIFYPNGVMEAKMHATGYVHATFYTPEGLRYGTRLHTHLIGNMHTHLVNYRVDLDVAGTTNSFQTLQMELENITNPWSPRHRLVQPTLKQTRYSRERQAAFRFGQPLPKYLLITSPKENPWGHTRSYRLQLHSMADQVLPPGWQEERAVTWARYPLAVTRYRESELSSSSIYNQNDPWDPPVVFEEFLRNNENIEDEDLVAWVTVGFLHIPHSEDIPNTATPGNSVGFLLRPFNFFPEDPALASRDLVVVWPLENGSTYAQRWIPEEDQSCLKPPPFSYNGSYRPV
- Km [5]: 330 ± 160 µM
